Source: patent US20150366190A1, “Sustained Release Methods to Defeat Plant Pests” (BioGuard Technologies, Inc., priority 2014, published 2015)
Several values for one entry are separate records, joined by “and”; a condition that tells them apart may be missing. Equal values may be shown once.

Tests used:
[1] = Rapid solvent extraction screen of coated specimens (water, 50% MeOH, 100% MeOH); type: physicochemical
Procedure: (§1) Two experimental protocols were used to evaluate aqueous release and the extent of active retention. The first protocol was a rapid solvent extraction screen that involved dipping the coated specimens sequentially into vials containing 35 ml water for 1, 1, 5, and 10 minutes, then 50% MeOH for 10 minutes, and 100% MeOH for 24 hours. This protocol provided a rapid comparison of water soluble and entrained, but releasable, active fractions. The second protocol was to assess release rates based on simulated precipitation/rainfall conditions. This protocol involved maintaining test samples in successive 35 ml volumes of water for 24-hour periods for up to […], providing a cumulative daily release rate from dried films. This water extraction period was followed by a single extraction in 100% MeOH for 24 and 48 hrs to determine residual/entrained or solvent removable active. The aqueous leach procedure is considered extreme in simulating intermittent daily rainfalls of varying intensity, but does provide the rates of release for comparative purposes.
The influence of formulation factors on cyproconazole release and entrainment from aqueous solutions containing 0.2% EtOH without latex (FIG. 1A) was compared to the subsequent EtOH studies with latex. […] This would be expected to represent the relative solubility and release of active, and likely dependent on water solubility of the active.
To determine the influence of latex on cyproconazole release, cyproconazole was first dissolved in ethanol and added to 2% latex solutions to assess the effects on cyproconazole binding with latex using solvent extractions (FIG. 1A).
The first step was to determine the solvent extractability of the non-latex formulations. This was based on readily soluble (water, 17 minutes), easily soluble (50% MeOH, 10 minutes), and relatively non-water soluble (100% MeOH, 24 hr) fractions of the formulations (FIG. 3).
A total of nine commercial surfactants (Table 1) were compared for relative entrainment of cyproconazole in latex, based on the percent of active contained in the 100% MeOH fraction (FIG. 5).
The same solvent extraction protocol was used to evaluate 2 other fungicides (chlorothalonil and spiroxamine) with differing chemistries (water solubility and solvent solubility). These were evaluated using the same solvent extraction protocol. The three surfactants that worked best with cyproconazole were used for these actives.

[2] = Simulated rainfall / sequential aqueous leaching of dried films; type: physicochemical; design: depletion of supplied active by aqueous extraction / release rate, % of supplied active: concentration or dose not given beside the values; details: for release rate of active: FIG. 10; for release rate, % of supplied active: FIG. 8; for recoverable active released to water: FIG. 9
Procedure: as §1
The solvent extraction method used above represents a rapid screen for the comparative entrainment behavior of actives and surfactants in the formulated latex system. To address the problem of foliar retention and longevity of actives using a single field application is more a function of rainfall frequency and intensity. To better understand this process under laboratory conditions, we employed a continuous/sequential aqueous (pH 6.0-6.8) leaching process, with periodic sampling and replacement of the solution over periods up to 288 hrs. This is a rather harsh leaching process, but is more representative than the water/MeOH solvent extraction procedure used for screening.
In the simulated rainfall study, we compared the aqueous extraction patterns for cyproconazole at 0.06% with 0.24% EtOH (1×) added to latex (with no surfactant), cyproconazole with […] and 0.05% PP912T added to latex, and cyproconazole with 1% EtOH (4×) and 0.05% PP912T added to latex. This combination was designed to determine formulation variables including surfactant and increased EtOH.
Aqueous extraction of formulations containing chlorothalonil and spiroxamine with latex without surfactant and with PP912T, AU-398 and AU-391A were compared to evaluate long term extraction profiles and residual active after 144 hrs of extraction, sampled at 24 hr intervals.

[3] = EtOH printed for cyproconazole only; cited from earlier work
[4] = aqueous 0.2% EtOH, without latex, FIG. 1A

N#Cc1c(Cl)c(Cl)c(Cl)c(C#N)c1Cl [chlorothalonil]
100% MeOH retention compared to no surfactant ([1]; latex, with PP912T and AU-398, FIG. 6): increase
release rate of active ([2]; latex alone, at 6 days): 63%
release rate of active ([2]; latex with surfactants, 6 days): 80-88%
active remained after extraction ([2]; without surfactant, after 6 days of extraction, FIG. 11): 16%
solvent solubility [3]: 10000 µg/mL

CC(C1CC1)C(O)(Cn1cncn1)c1ccc(Cl)cc1 (centres unmarked) [cyproconazole]
50% MeOH fraction of active [1, 4]: 68%
100% MeOH fraction of active [1, 4]: 13.5% and 13%
water extractable fraction of active [1, 4]: 18.5%
100% MeOH fraction of active ([1]; dissolved in ethanol, added to 2% latex solution, FIG. 1A): 32%
release rate, % of supplied active ([2]; latex with AU-391A, at 6 days): 60%
release rate, % of supplied active ([2]; latex with AU-398, at 6 days): 50%
release rate, % of supplied active ([2]; latex with PP912T, at 6 days): 73%
depletion of supplied active by aqueous extraction ([2]; latex with surfactant PP912T, at 288 days, FIG. 7): 90%
time to attain 90% loss to water ([2]; latex/EtOH, FIG. 1B): 12 days
time at which aqueous loss of supplied active was 90% ([2]; without latex, FIG. 1B): 2.5 days

CCCN(CC)CC1COC2(CCC(C(C)(C)C)CC2)O1 (centres unmarked) [spiroxamine]
release to water compared to the no-surfactant control ([1]; latex, with PP912T, AU-398 and AU-391A, FIG. 6): increased release
recoverable active released to water ([2]; latex alone, 144 hr extraction): 85%
recoverable active released to water ([2]; latex plus AU-391A, 144 hr extraction): 85%
recoverable active released to water ([2]; latex plus AU-398, 144 hr extraction): 50%
recoverable active released to water ([2]; latex plus PP912T, 144 hr extraction): 50%
effect on release compared to latex alone ([2]; latex with AU-391A): no effect
release rate compared to latex alone ([2]; latex with PP912T and AU-398): substantial reduction
active released ([2]; with latex, without surfactant, 6 days extraction, FIG. 13): 94%
